Measured values from patent US4745124A, “Orally effective anti-hypertensive agents” (priority 1983, dated 1988).
pIC50: −log10 of the molar value. “And” between values parts separate entries of the source, which are not always exact repeats. Identical values can stand only once.

Legend:
[1] = stability of aqueous solution of SQ 14225 on standing; assay type: physicochemical; settings: 1 mg per ml, pH about 8, as little as 30 minutes
[2] = system: ACE from guinea pig or human urine; experiment: inhibition of ACE prepared from guinea pig or human urine, [3H]-HipGlyGly substrate; assay type: biochemical; settings: SQ 14,225 at 0.1 μM
Procedure: B. In certain experiments, as identified, an alternative assay system was employed using [^3 H]-HipGlyGly as substrate as described by Ryan, J. W., et al., Biochem. J. 167 501 (1977).
Fresh urine was ultrafiltered using a membrane (PTGC 142 05, Millipore Corp., Bedford, MA, U.S.A.) with a 10,000 MW retention limit. Typically, 500 ml of urine was ultrafiltered to approx. 15 ml and then the concentrated proteins were washed with water and then applied to a column (2.5×110 cm) of Sephacryl S-200, Trademark, Pharmacia Chemical Co., Uppsala, Sweden, previously equilibrated with 0.05M TrisHCl buffer, pH 8.0, with 0.5M NaCl. Under these conditions, ACE was eluted in two peaks; one, the major peak, was eluted just after the void volume (Ve /Vo =1.21) and the second (up to 20% of the total activity) at Ve /Vo =1.41. Enzyme activity was measured using [^3 H]-HipGlyGly as described in Example 1B. […] The activities were inhibited to a maximum of 84% by antibody to guinea pig lung ACE. The enzyme used herein was that of the first peak to emerge from the Sepacryl column. The enzyme preparation was concentrated about 10-fold by ultrafiltration. In one such experiment, the concentrated urinary protein solution obtained by ultrafiltration contained 2,400 m units of enzyme at 8.0 m units/mg of protein, and peak 1 from the Sephacryl column contained 1,100 m units at 814 m units/mg of protein. […]

[3] = oral; most patients; cited from earlier work
[4] = molecular target: T1, angiotensin converting enzyme (human urinary ACE) (Homo sapiens, UniProt P12821); experiment: ACE activity assay, I50 (Example 216A); assay type: biochemical; settings: human urinary ACE; Benzoyl-GlyHisLeu 1×10^-4 M; Hepes pH 8.0; 37° C; in vitro; read-out: I50
T1 construct: ACE purified from human urine; from tissue; host or cells: human urine (ultrafiltration and Sephacryl S-200, first eluting peak; prepared as in Ryan et al., Tissue and Cell 10, 555 (1978))
T1 sequence (P12821 30-1232 limits assumed): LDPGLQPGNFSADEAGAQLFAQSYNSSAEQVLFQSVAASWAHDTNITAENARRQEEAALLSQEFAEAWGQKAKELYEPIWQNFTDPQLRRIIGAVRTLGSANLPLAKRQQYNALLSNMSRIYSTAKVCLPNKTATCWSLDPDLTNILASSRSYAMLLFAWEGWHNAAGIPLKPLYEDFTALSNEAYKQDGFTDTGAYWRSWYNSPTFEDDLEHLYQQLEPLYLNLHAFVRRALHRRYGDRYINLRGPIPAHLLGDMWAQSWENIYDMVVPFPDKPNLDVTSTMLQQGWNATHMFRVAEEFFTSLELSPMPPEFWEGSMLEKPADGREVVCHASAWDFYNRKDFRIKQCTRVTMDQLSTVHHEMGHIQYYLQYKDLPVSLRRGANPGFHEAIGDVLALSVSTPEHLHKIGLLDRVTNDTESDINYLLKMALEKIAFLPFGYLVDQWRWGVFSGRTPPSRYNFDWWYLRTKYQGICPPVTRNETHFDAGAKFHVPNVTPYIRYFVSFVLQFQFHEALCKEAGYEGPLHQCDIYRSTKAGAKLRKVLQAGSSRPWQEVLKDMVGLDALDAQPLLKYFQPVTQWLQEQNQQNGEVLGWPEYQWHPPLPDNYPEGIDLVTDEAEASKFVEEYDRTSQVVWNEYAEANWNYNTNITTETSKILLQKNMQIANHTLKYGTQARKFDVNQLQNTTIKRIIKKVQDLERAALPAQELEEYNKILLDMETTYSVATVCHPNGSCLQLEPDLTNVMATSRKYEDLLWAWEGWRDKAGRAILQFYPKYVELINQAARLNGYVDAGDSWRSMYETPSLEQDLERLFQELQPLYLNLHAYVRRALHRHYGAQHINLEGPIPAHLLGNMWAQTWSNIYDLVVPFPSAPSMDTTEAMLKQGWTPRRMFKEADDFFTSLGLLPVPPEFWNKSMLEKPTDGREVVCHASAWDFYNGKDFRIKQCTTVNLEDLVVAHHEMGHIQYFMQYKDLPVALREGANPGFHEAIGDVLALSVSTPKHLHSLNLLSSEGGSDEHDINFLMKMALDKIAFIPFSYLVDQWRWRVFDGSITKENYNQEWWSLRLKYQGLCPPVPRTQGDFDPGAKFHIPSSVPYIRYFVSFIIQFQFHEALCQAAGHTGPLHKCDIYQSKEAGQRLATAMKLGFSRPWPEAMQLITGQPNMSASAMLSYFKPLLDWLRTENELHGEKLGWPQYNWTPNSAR

[5] = resistance of thioester compounds to alkaline hydrolysis; assay type: physicochemical
From the text: Therefore the observed inhibitory effects cannot be accounted for by postulating spontaneous hydrolysis of the thioester bond to regenerate the free sulfhydryl group.

[6] = system: pressor effects of angiotensin I; experiment: oral effectiveness: blood pressure response to angiotensin I in anesthetized rats; assay type: in vivo, rat; settings: for Blood Pressure Response to 400 ng/kg of Angiotensin I: oral 17 μmol/kg, Ex. 228; for Blood pressure response to angiotensin I (% of control): oral 10 mg, Ex. 225
Summary of the method: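 Fasted rats under pentobarbital anesthesia (50-60 mg/kg i.p.), ventilated, with carotid arterial pressure recorded; i.v. angiotensin I (80 ng, 160 ng or 400 ng/kg) or angiotensin II (80 ng) challenges repeated at timed intervals after oral gavage of compound (2-20 mg/kg, 10 mg, 17 or 23 μmol/kg) in aqueous NaHCO3.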

[7] = system: pressor effects of angiotensin II; experiment: oral: blood pressure response to angiotensin II in anesthetized rats; assay type: in vivo, rat; settings: 12 or 20 mg/kg
Procedure: Rats (210-290 g body weight) were fasted overnight and then anesthetized with intraperitoneal pentobarbital, 50-60 mg/kg. Tracheostomy was performed and the animals were ventilated mechanically. A cannula was inserted into a femoral vein for injection of angiotensin I or II, and a second cannula was inserted into a common carotid artery for direct measurement of arterial blood pressure. Heparin, 1,000 units, was injected via the femoral vein to prevent coagulation. Blood pressure was measured with a pressure transducer connected to a polygraph. The rats were injected with 80 ng of angiotensin I or angiotensin II in 20 μl of 0.9 g % NaCl; an amount of antiotensin I or II sufficient to raise mean arterial blood pressure by 27-40 mm Hg. After the responsiveness of a given rat to angiotensins I and II was established, compound (I), at 2 or 5 mg/kg (drug dissolved in 0.5 ml of H2 O plus 10 μl of 1N NaHCO3), was given via a stomach tube. At timed intervals, the effects of 80 ng of angiotensin I or angiotensin II on mean arterial blood pressure were tested.
Rats were prepared as described in Example 222. Compound (II) [N-benzoyl-L-phenylalanylthiopropanoyl)-L-proline] was given orally, via a stomach tube, at a dose of 12 mg/kg or 20 mg/kg. Compound (II) was dissolved in 0.5 ml of H2 O plus 10 μl of 1N NaHCO3. […]

[8] = system: pressor effects of angiotensin I; experiment: intravenous effectiveness: blood pressure response to angiotensin I in anesthetized rats; assay type: in vivo, rat; settings: i.v. 2 μmol/kg, Ex. 229

Compound: C[C@H](CS)C(=O)N1CCCC1C(=O)O (stereo in doubt) [SQ 14225, D-3-mercapto-2-methylpropanoyl-L-proline]
- activity of aqueous solution on standing [1]: substantially less active
- inhibition of activities of both ACE peaks [2]: inhibited completely
- stability in normal gastric and intestinal environments [3]: sufficiently stable

Compound: CC(SC(=O)C(Cc1ccccc1)NC(=O)c1ccccc1)C(=O)N1CCC[C@H]1C(=O)O (stereo partly drawn) [Compound (II), 2-benzoylphenylalanylthiopropanoyl-L-proline]
- pIC50 [4]: 7.15 and 7.40
- resistance to alkaline hydrolysis [5]: surprisingly resistant to alkaline hydrolysis
- Blood Pressure Response to 80 ng of Angiotensin I ([6]; oral 12 mg/kg, 6 min, Rat 1): 109 % of control
- Blood Pressure Response to 80 ng of Angiotensin I ([6]; oral 12 mg/kg, 12 min, Rat 1): 80 % of control
- Blood Pressure Response to 80 ng of Angiotensin I ([6]; oral 12 mg/kg, 30 min, Rat 1): 51 % of control
- Blood Pressure Response to 80 ng of Angiotensin I ([6]; oral 12 mg/kg, 47 min, Rat 1): 71 % of control
- Blood Pressure Response to 80 ng of Angiotensin I ([6]; oral 12 mg/kg, 56 min, Rat 1): 69 % of control
- Blood Pressure Response to 80 ng of Angiotensin I ([6]; oral 12 mg/kg, 76 min, Rat 1): 63 % of control
- Blood Pressure Response to 80 ng of Angiotensin I ([6]; oral 12 mg/kg, 150 min, Rat 1): 49 % of control
- Blood Pressure Response to 80 ng of Angiotensin I ([6]; oral 12 mg/kg, 158 min, Rat 1): 57 % of control
- Blood Pressure Response to 80 ng of Angiotensin I ([6]; oral 20 mg/kg, 6 min, Rat 2): 91 % of control
- Blood Pressure Response to 80 ng of Angiotensin I ([6]; oral 20 mg/kg, 12 min, Rat 2): 70 % of control
- Blood Pressure Response to 80 ng of Angiotensin I ([6]; oral 20 mg/kg, 23 min, Rat 2): 76 % of control
- Blood Pressure Response to 80 ng of Angiotensin I ([6]; oral 20 mg/kg, 30 min, Rat 2): 76 % of control
- Blood Pressure Response to 80 ng of Angiotensin I ([6]; oral 20 mg/kg, 56 min, Rat 2): 55 % of control
- Blood Pressure Response to 80 ng of Angiotensin I ([6]; oral 20 mg/kg, 76 min, Rat 2): 40 % of control
- Blood Pressure Response to 80 ng of Angiotensin I ([6]; oral 20 mg/kg, 95 min, Rat 2): 40 % of control
- Blood Pressure Response to 80 ng of Angiotensin I ([6]; oral 20 mg/kg, 142 min, Rat 2): 76 % of control
- Blood Pressure Response to 80 ng of Angiotensin I ([6]; oral 20 mg/kg, 158 min, Rat 2): 76 % of control
- Blood Pressure Response to 80 ng of Angiotensin I ([6]; oral 20 mg/kg, 166 min, Rat 2): 76 % of control
- Blood Pressure Response to 80 ng of Angiotensin I ([6]; oral 20 mg/kg, 176 min, Rat 2): 76 % of control
- pressor effects of angiotensin II (specificity) [7]: did not inhibit

Compound: C[C@H](CSC(=O)[C@H](Cc1ccccc1)NC(=O)[C@H](CCCCN)NC(=O)C1CCCC1)C(=O)N1CCC[C@H]1C(=O)O [N-alpha-[3-(N-alpha-cyclopentylcarbonyl-L-lysyl-L-phenylalanylthio)-2-D-methylpropanoyl]-L-proline]
- pIC50 [4]: 7.82
- Blood Pressure Response to 400 ng/kg of Angiotensin I ([6]; 5 min): 59 % of Control
- Blood Pressure Response to 400 ng/kg of Angiotensin I ([6]; 10 min): 44 % of Control
- Blood Pressure Response to 400 ng/kg of Angiotensin I ([6]; 15 min): 44 % of Control
- Blood Pressure Response to 400 ng/kg of Angiotensin I ([6]; 31 min): 44 % of Control
- Blood Pressure Response to 400 ng/kg of Angiotensin I ([6]; 37 min): 38 % of Control
- Blood Pressure Response to 400 ng/kg of Angiotensin I ([6]; 45 min): 44 % of Control
- Blood Pressure Response to 400 ng/kg of Angiotensin I ([6]; 55 min): 44 % of Control
- Blood Pressure Response to 400 ng/kg of Angiotensin I ([6]; 81 min): 36 % of Control
- Blood Pressure Response to 400 ng/kg of Angiotensin I ([6]; 93 min): 36 % of Control
- Blood Pressure Response to 400 ng/kg of Angiotensin I ([6]; 104 min): 38 % of Control
- Blood Pressure Response to 400 ng/kg of Angiotensin I ([8]; 3 min): 8 % of Control
- Blood Pressure Response to 400 ng/kg of Angiotensin I ([8]; 9 min): 15 % of Control
- Blood Pressure Response to 400 ng/kg of Angiotensin I ([8]; 14 min): 23 % of Control
- Blood Pressure Response to 400 ng/kg of Angiotensin I ([8]; 19 min): 23 % of Control
- Blood Pressure Response to 400 ng/kg of Angiotensin I ([8]; 24 min): 33 % of Control
- Blood Pressure Response to 400 ng/kg of Angiotensin I ([8]; 37 min): 41 % of Control
- Blood Pressure Response to 400 ng/kg of Angiotensin I ([8]; 45 min): 46 % of Control
- Blood Pressure Response to 400 ng/kg of Angiotensin I ([8]; 54 min): 46 % of Control
- Blood Pressure Response to 400 ng/kg of Angiotensin I ([8]; 77 min): 46 % of Control
- Blood Pressure Response to 400 ng/kg of Angiotensin I ([8]; 87 min): 51 % of Control

Compound: CC(SC(=O)C(Cc1ccccc1)NC(=O)c1ccccc1)C(=O)N1CC=C[C@H]1C(=O)O (stereo partly drawn) [(B), N-(2-benzoylphenylalanylthiopropanoyl)-L-3,4-dehydroproline]
- pIC50 [4]: 8.52
- Blood pressure response to angiotensin I (% of control) ([6]; 3 min): 100%
- Blood pressure response to angiotensin I (% of control) ([6]; 9 min): 81%
- Blood pressure response to angiotensin I (% of control) ([6]; 14 min): 74%
- Blood pressure response to angiotensin I (% of control) ([6]; 24 min): 74%
- Blood pressure response to angiotensin I (% of control) ([6]; 28 min): 74%
- Blood pressure response to angiotensin I (% of control) ([6]; 34 min): 63%
- Blood pressure response to angiotensin I (% of control) ([6]; 44 min): 56%
- Blood pressure response to angiotensin I (% of control) ([6]; 54 min): 44%
- Blood pressure response to angiotensin I (% of control) ([6]; 64 min): 56%
- Blood pressure response to angiotensin I (% of control) ([6]; 85 min): 37%
- Blood pressure response to angiotensin I (% of control) ([6]; 94 min): 44%
- Blood pressure response to angiotensin I (% of control) ([6]; 104 min): 74%
- Blood pressure response to angiotensin I (% of control) ([6]; 114 min): 56%
- Blood pressure response to angiotensin I (% of control) ([6]; 146 min): 100%
